Read-outs that look alike come from different tables or passages of the source.
Tests used:
[1] = target: T1, human Kv4.3/KChIP2.2 potassium channel (Homo sapiens, UniProt Q9UK17); test: Whole cell patch clamp, CHO-K1 cells stably expressing human Kv4.3/KChIP2.2; format: cell-based; conditions: CHO-K1
T1 construct: expressed in transfected cells
T1 sequence (Q9UK17 1-655): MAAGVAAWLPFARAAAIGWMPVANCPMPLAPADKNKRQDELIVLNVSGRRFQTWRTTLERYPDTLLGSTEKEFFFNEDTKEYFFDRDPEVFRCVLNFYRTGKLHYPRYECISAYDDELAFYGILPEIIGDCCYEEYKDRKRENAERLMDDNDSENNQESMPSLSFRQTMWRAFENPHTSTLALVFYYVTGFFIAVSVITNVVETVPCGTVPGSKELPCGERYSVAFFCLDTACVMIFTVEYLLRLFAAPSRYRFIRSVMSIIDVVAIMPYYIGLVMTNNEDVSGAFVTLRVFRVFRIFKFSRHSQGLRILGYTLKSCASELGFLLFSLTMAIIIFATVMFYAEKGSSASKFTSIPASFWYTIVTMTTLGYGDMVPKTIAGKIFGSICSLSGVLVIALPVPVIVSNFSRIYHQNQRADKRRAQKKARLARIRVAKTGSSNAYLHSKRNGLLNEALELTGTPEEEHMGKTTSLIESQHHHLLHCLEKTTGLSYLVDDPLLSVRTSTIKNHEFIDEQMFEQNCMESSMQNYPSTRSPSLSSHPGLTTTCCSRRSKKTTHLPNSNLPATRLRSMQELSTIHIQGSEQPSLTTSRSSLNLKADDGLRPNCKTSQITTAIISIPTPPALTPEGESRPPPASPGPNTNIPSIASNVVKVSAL
Experimental: For this experiment, a recombinant CHO-K1 cell line stably expressing the human Kv4.3/KChIP2.2 potassium channel was used. The cells used for this experiment were kept in continuous culture under standard conditions (37° C., air supplemented with 7% CO2). The CHO-K1 Kv4.3/KChIP2.2 cells were kept in Iscove s modified DMEM (Dulbecco's Modified Eagle's Medium) medium (IMEM) supplemented with 100 U/ml Penicillin, 100 μg/ml Streptomycin, 7% fetal calf serum (FCS), 2.5 μg/ml amphotericin, 400 μg/ml G418, and 400 μg/ml Zeocin™. Cells were passed every 3-4 days after detachment using a Trypsin solution. The quality of the cultured cells was guaranteed by vitality and contamination tests. The culture of the cells was performed as described in protocol D hereunder.
10 mM stock solutions of the compounds were prepared in DMSO. Solutions of the compounds were prepared by dilution of stock solution in bath solution. If the required stock solution volume was theoretically below 1 μl, bath solutions with higher compound concentration were used for dilution. The maximal DMSO concentration during experiments was 0.1% (v/v).
Activity of the human Kv4.3/KChIP2.2 channel was investigated using the patch clamp technique in its whole cell mode. This means that the current needed for clamping the whole cell expressing the K^+-channel protein to a specific potential was measured. Experiments were performed using a patch clamp set-up. Technical equipment needed for manipulation of the cells was placed on a vibration-isolated table and shielded with a Faraday cage to minimize electrical noise. The amplifier and control system were placed in a rack outside the Faraday cage. The system consisted of an EPC9 or EPC10 patch clamp amplifier (HEKA, Lambrecht, Germany), and the perfusion system DADVC8 (ALA Scientific, New York, USA) controlled by the Pulse software package (HEKA, Lambrecht, Germany) installed on a personal computer. The pipettes used for patch clamping were made of borosilicate glass.
Measurements were performed at room temperature (20-25° C.). In each experiment (i.e. each cell) only one concentration of the compounds was investigated no cumulative dosages were performed. Each cell acted as its own control. […]
Between voltage pulses the cell was clamped to a holding potential of −80 mV (inside). The test protocols are illustrated in FIG. 1 and Table 4. The test protocol illustrated in FIG. 1a was used to characterize the properties of the Kv4.3/KChIP2.2 channel and to check the quality of the individual patch clamp experiment (voltage control). […] Each test protocol consisted of 4 segments.
After the whole cell configuration was established a current-voltage curve (IV activation 1; FIG. 1a and Table 4a) was recorded under constant superfusion with bath solution to check for Kv4.3/KChIP2.2 expression and the quality of the individual patch clamp experiment (voltage control). Subsequently, 14 test pulses (series 1; FIG. 1b and Table 4b) were applied at 0.1 Hz under constant superfusion with bath solution. The protocol was initiated by a voltage jump to 100 mV (400 ms) to achieve full inactivation. Then the Kv4.3/KChIP2.2 channels were transferred to the open state by depolarization to +40 mV for 300 milliseconds (activation). Only cells generating current amplitudes between 1 nA and 50 nA were used for the experimental procedure. No or negligible rundown was observed.
Then, 36 test pulses (series 2) were applied at 0.1 Hz under constant superfusion with the compound dissolved in bath solution. Finally, another current-voltage curve was recorded in the presence of the compounds (IV activation 2).
Three different types of analysis were used: Inhibition at the peak current, inhibition of translocated charge and inhibition 75 ms after activation at +40 mV (sustained current). The peak current/charge/current at 75 ms was determined using the online analysis tool of the HEKA pulse software package. […]

[2] = remaining current measured after application of the compound and relative to the blank, read-out: Kv4.3 charge in %
[3] = remaining peak height measured after application of the compound and relative to the blank, read-out: Kv4.3 peak in %

Structure (SMILES) | remaining activity at 1 µM [1, 2] | remaining activity at 1 µM [1, 3] | melting point
COc1ccccc1Nc1nc(C)c(C(=O)NC2Cc3ccccc3C2)s1 [Compound 83, 2-(2-methoxy-phenylamino)-4-methyl-thiazole-5-carboxylic acid indan-2-ylamide] | 77% | 97% | 143.2 to 147.6 °C
COc1ccccc1Nc1nc(C)c(C(=O)N2CCN(Cc3ccccc3)C[C@@H]2Cc2ccccc2)s1 [Compound 125, ((S)-2,4-dibenzyl-piperazin-1-yl)-[2-(2-methoxy-phenylamino)-4-methyl-thiazol-5-yl]-methanone] | 74% | 95% | 89.3 to 92.5 °C
COc1ccccc1Nc1nc(C)c(C(=O)Nc2ccccc2)s1 [Compound 82, 2-(2-methoxy-phenylamino)-4-methyl-thiazole-5-carboxylic acid phenylamide] | 82% | 91% | 183.5 to 188.1 °C
CCOC(=O)c1cccc(Nc2nc(C)c(C(=O)N[C@H]3CCC[C@@H]3OCc3ccccc3)s2)c1 [Compound 89, 3-[5-((1S,2S)-2-benzyloxy-cyclopent-1-ylcarbamoyl)-4-methyl-thiazol-2-ylamino]-benzoic acid ethyl ester] | 55% | 93% | 145.7 to 148 °C
COc1ccccc1Nc1nc(C)c(C(=O)OCc2ccccc2)s1 [Compound 123, 2-(2-methoxy-phenylamino)-4-methyl-thiazole-5-carboxylic acid benzyl ester] | 31% | 72% | 98.4 to 100 °C
COc1ccccc1Nc1nc(C)c(C(=O)N2CCc3ccccc3C2)s1 [Compound 85, (3,4-dihydro-1H-isoquinolin-2-yl)-[2-(2-methoxy-phenylamino)-4-methyl-thiazol-5-yl]-methanone] | 82% | 96% | 159.3 to 163.5 °C
COc1ccccc1Nc1nc(C)c(C(=O)NCc2cc(C)ccc2C)s1 [Compound 160, 2-(2-methoxy-phenylamino)-4-methyl-thiazole-5-carboxylic acid 2,5-dimethyl-benzylamide] | 90% | 99% | 124.1 to 124.9 °C
Cc1nc(NCc2ccccc2)sc1C(=O)N[C@H]1CCC[C@@H]1OCc1ccccc1 [Compound 211, 2-benzylamino-4-methyl-thiazole-5-carboxylic acid ((1S,2S)-2-benzyloxycyclopent-1-yl) amide] | 86% | 98% | 185.1 to 185.8 °C
COc1ccccc1Nc1nc(C)c(C(=O)N2Cc3ccccc3C2)s1 [Compound 84, (1,3-dihydro-isoindol-2-yl)-[2-(2-methoxy-phenylamino)-4-methyl-thiazol-5-yl]-methanone] | 87% | 99% | 147.6 to 149.6 °C
COc1ccccc1Nc1nc(C)c(C(=O)N2CCC(n3c(=O)[nH]c4ccccc43)CC2)s1 [Compound 170, 1-{1-[2-(2-methoxy-phenylamino)-4-methyl-thiazole-5-carbonyl]-piperidin-4-yl}-1,3-dihydro-benzoimidazol-2-one] | 90% | 97% | > 250 °C
COc1ccccc1Nc1nc(C)c(C(=O)N2CCCCC2Cc2ccccc2)s1 (centres unmarked) [Compound 86, (2-benzyl-piperidin-1-yl)-[2-(2-methoxy-phenylamino)-4-methyl-thiazol-5-yl]-methanone] | 79% | 102% | 93.2 to 95.6 °C
COc1ccccc1Nc1nc(C)c(C(=O)N[C@H](C(=O)O)c2ccccc2)s1 [Compound 114, (S)-{[2-(2-methoxy-phenylamino)-4-methyl-thiazole-5-carbonyl]-amino}-phenyl-aceticacid] | 88% | 87% | 259.6 to 262 °C
COc1ccccc1Nc1nc(C)c(C(=O)NCc2ccc(C)cc2)s1 [Compound 142, 2-(2-methoxy-phenylamino)-4-methyl-thiazole-5-carboxylic acid 4-methyl-benzylamide] | 74% | 80% | 166.8 to 168.3 °C
COc1ccccc1Nc1nc(C)c(C(=O)N2CCC(c3ccccc3OC)CC2)s1 [Compound 165, [2-(2-methoxy-phenylamino)-4-methyl-thiazol-5-yl]-[4-(2-methoxy-phenyl)-piperidin-1-yl]-methanone] | 80% | 100% | 134.5 to 139 °C
COc1ccccc1Nc1nc(C)c(C(=O)NCc2ccc(-c3cccs3)cc2)s1 [Compound 103, 2-(2-methoxy-phenylamino)-4-methyl-thiazole-5-carboxylic acid 4-thiophen-2-yl-benzylamide] | 64% | 89% | 195.6 to 198.6 °C
COc1ccccc1Nc1nc(C)c(C(=O)NCCOCc2ccccc2)s1 [Compound 88, 2-(2-methoxy-phenylamino)-4-methyl-thiazole-5-carboxylic acid (2-benzyloxy-ethyl)-amide] | 85% | 95% | 44.6 to 47.6 °C
COc1ccccc1Nc1nc(C)c(C(=O)NCc2ccc(CNC(C)=O)cc2)s1 [Compound 96, 2-(2-methoxy-phenylamino)-4-methyl-thiazole-5-carboxylic acid 4-(acetylamino-methyl)-benzylamide] | 85% | 99% | 199.7 to 200.3 °C
COc1ccccc1Nc1nc(C)c(C(=O)NCc2ccc(-c3csnn3)cc2)s1 [Compound 161, 2-(2-methoxy-phenylamino)-4-methyl-thiazole-5-carboxylic acid 4-[1,2,3]thiadiazol-4-yl-benzylamide] | 75% | 89% | 191.6 to 194.5 °C
Cc1nc(Oc2ccccc2)sc1C(=O)N[C@H]1CCC[C@@H]1OCc1ccccc1 [Compound 80, 4-methyl-2-phenoxy-thiazole-5-carboxylicacid ((1S,2S)-2-benzyloxycyclopent-1-yl)amide] | – | – | 93.4 to 95.8 °C
COc1ccccc1Nc1nc(C)c(C(=O)NCc2ccc(F)c(C(F)(F)F)c2)o1 [Compound 223, 2-(2-methoxy-phenylamino)-4-methyl-oxazole-5-carboxylic acid 4-fluoro-3-trifluoromethyl-benzylamide] | – | – | 71.6 to 84.3 °C
